Common to all, as to assay type: cell-based, human
One experiment deals with BTSC30M. Nature of the experiment: alamarBlue cell viability, BTSC 30M. To be noted: Table 4 library screen, alamarBlue; for IC50: Homo sapiens, read-out: 30M IC50 (μM). Here is the method: (§1) First, the library was screened for biological activity against a set of three representative GBM BTSCs derived from GBM patients, including the very aggressive GBM BTSC lines, BTSC73M, BTSC30M, BTSC68EF. Dissociated BTSC spheres were seeded at 1500 cells/96-well and treated with drug compound or vehicle (DMSO) one day after plating. Cell viability following drug treatment was assessed after 72 hrs using the ALAMARBLUE™ assay (Invitrogen) according to the manufacturer's instructions. All culture experiments were performed in triplicate with a minimum of three wells per condition.
(§2) BTSC spheres were dissociated to single cells with the enzyme Accumax (Innovative Technologies), seeded at 1500 cells/96-well and treated with drug or vehicle (DMSO) one day after plating. […] BTSC spheres were dissociated to single cells as above and plated in 96 well plates in triplicate at 3000 cells/96-well. […] Cell viability following drug treatment was assessed three days later using the ALAMARBLUE™ assay (Invitrogen) according to the manufacturer's instructions. All culture experiments were performed in triplicate with a minimum of three wells per condition.

A further experiment deals with BTSC68EF. Nature of the experiment: alamarBlue cell viability, BTSC 68EF. The note with it: Table 4 library screen, alamarBlue; for IC50: Homo sapiens, read-out: 68EF IC50. Here is the method:
as §1, §2

In another experiment the test system is 147EF. Nature of the experiment: alamarBlue cell viability, BTSC 147EF. The note with it: Table 4 library screen; for IC50: Homo sapiens. The source says:
BTSC spheres were dissociated to single cells with the enzyme Accumax (Innovative Technologies), seeded at 1500 cells/96-well and treated with drug or vehicle (DMSO) one day after plating. Cytotoxicity studies were repeated independently at Sickkids Hospital using BTSC lines 25M, 67EF, 73EF, 84EF and 127EF. BTSC spheres were dissociated to single cells as above and plated in 96 well plates in triplicate at 3000 cells/96-well. In both sets of experiments drugs were used as serial dilutions within the range of 5 μM to 100 nM in the first set and 25 μM to 10 nM. Cell viability following drug treatment was assessed three days later using the ALAMARBLUE™ assay (Invitrogen) according to the manufacturer's instructions. All culture experiments were performed in triplicate with a minimum of three wells per condition. Table 4 below illustrates a screen of the library against a number of BTSCs using ALAMARBLUE™ assay.
Background: Alamar Blue is a resazurin reagent that responds to reducing activity.

Another experiment concerns BTSC73M. Nature of the experiment: alamarBlue cell viability, BTSC 73M. The note with it: Table 4 library screen, alamarBlue; for IC50: Homo sapiens, read-out: 73M IC50. Here is the method: as §1, §2

One may read the IC50 as the concentration that gives 50% inhibition. For the compound `CN(CC(=O)N(Cc1ccc(C2CCCCC2)cc1)c1ccc([N+](=O)[O-])cc1)S(=O)(=O)c1c(F)c(F)c(F)c(F)c1F` [Compound 8, N-(4-cyclohexylbenzyl)-N-(4-nitrophenyl)-2-(2,3,4,5,6-pentafluoro-N-methylphenylsulfonamido)acetamide], the IC50 in the experiment on BTSC30M turned out to be 0.522 µM; with BTSC68EF, 590 nM; in the experiment on 147EF, 669 nM; in the experiment with BTSC73M, 1100 nM.

For `CN(CC(=O)N(Cc1ccc(C2CCCCC2)cc1)c1ccc(NC(=O)C(=O)O)cc1)S(=O)(=O)c1c(F)c(F)c(F)c(F)c1F` [Compound 28, 2-((4-(N-(4-cyclohexylbenzyl)-2-(2,3,4,5,6-pentafluoro-N-methylphenylsulfonamido)acetamido)phenyl)amino)-2-oxoacetic acid], the “30M IC50 (μM)” value in the experiment with BTSC30M is given as “no effect”. In the experiment with 147EF, the “147EF IC50 (μM)” value is on record as “no effect”. Besides, the “73M IC50 (μM)” value in the experiment with BTSC73M is recorded as “no effect”.

Regarding `CN(CC(=O)N(Cc1ccc(C2CCCCC2)cc1)c1ccc(-c2nnn[nH]2)cc1)S(=O)(=O)c1c(F)c(F)c(F)c(F)c1F` [Compound 35, N-(4-(1H-tetrazol-5-yl)phenyl)-N-(4-cyclohexylbenzyl)-2-(2,3,4,5,6-pentafluoro-N-methylphenylsulfonamido)acetamide], the “30M IC50 (μM)” value in the experiment with BTSC30M was “no effect”. In the experiment on BTSC68EF, the “68EF IC50 (μM)” value is “no effect”. Besides, the half-maximal inhibitory concentration (IC50) in the experiment on BTSC73M came to 2770 nM.

Turning to `COC(=O)c1ccc(N(Cc2ccc(C3CCCCC3)cc2)C(=O)CN(C)S(=O)(=O)c2c(F)c(F)c(F)c(F)c2F)cc1` [Compound 39, methyl 4-(N-(4-cyclohexylbenzyl)-2-(2,3,4,5,6-pentafluoro-N-methylphenylsulfonamido)acetamido)benzoate], the IC50 in the experiment with BTSC30M worked out at 1.09 µM; in the experiment on BTSC68EF, 607 nM; in the experiment on BTSC73M it was 3320 nM.

Regarding `CCOC(=O)c1ccc(N(Cc2ccc(C3CCCCC3)cc2)C(=O)CN(C)S(=O)(=O)c2c(F)c(F)c(F)c(F)c2F)cc1` [Compound 40, ethyl 4-(N-(4-cyclohexylbenzyl)-2-(2,3,4,5,6-pentafluoro-N-methylphenylsulfonamido)acetamido)benzoate], the “73M IC50 (μM)” value in the experiment on BTSC73M is “no effect”.

In the case of `CN(CC(=O)N(Cc1ccc(C2CCCCC2)cc1)c1ccc(CP(=O)(O)O)cc1)S(=O)(=O)c1c(F)c(F)c(F)c(F)c1F` [Compound 21, (4-(N-(4-cyclohexylbenzyl)-2-(2,3,4,5,6-pentafluoro-N-methylphenylsulfonamido)acetamido)benzyl)phosphonic acid], the “73M IC50 (μM)” value in the experiment with BTSC73M is on record as “no effect”.

Turning to `CN(CC(=O)N(Cc1ccc(C2CCCCC2)cc1)c1ccc(C#N)cc1)S(=O)(=O)c1c(F)c(F)c(F)c(F)c1F` [Compound 34, N-(4-cyanophenyl)-N-(4-cyclohexylbenzyl)-2-(2,3,4,5,6-pentafluoro-N-methylphenylsulfonamido)acetamide], in the experiment with BTSC30M, the 50% inhibitory concentration (IC50) turned out to be 2.23 µM. Further, the “73M IC50 (μM)” value with BTSC73M is given as “no effect”.

For the compound `CN(CC(=O)N(Cc1ccc(C2CCCCC2)cc1)c1ccc(NS(=O)(=O)c2cncn2C)cc1)S(=O)(=O)c1c(F)c(F)c(F)c(F)c1F` [Compound 15, N-(4-cyclohexylbenzyl)-N-(4-(1-methyl-1H-imidazole-5-sulfonamido)phenyl)-2-(2,3,4,5,6-pentafluoro-N-methylphenylsulfonamido)acetamide], in the experiment on BTSC30M, the IC50 amounted to 0.607 µM.

In the case of `CN(CC(=O)N(Cc1ccc(C2CCCCC2)cc1)c1cc(C(=O)O)cc(C(=O)O)c1)S(=O)(=O)c1c(F)c(F)c(F)c(F)c1F` [Compound 37, 5-(N-(4-cyclohexylbenzyl)-2-(2,3,4,5,6-pentafluoro-N-methylphenylsulfonamido)acetamido)isophthalic acid], the “30M IC50 (μM)” value in the experiment with BTSC30M is “no effect”. In the experiment with BTSC73M, the “73M IC50 (μM)” value is listed as “no effect”.

Turning to `CN(CC(=O)N(Cc1ccc(C2CCCCC2)cc1)c1ccc(NS(=O)(=O)c2ccc3ccccc3c2)cc1)S(=O)(=O)c1c(F)c(F)c(F)c(F)c1F` [Compound 12, N-(4-cyclohexylbenzyl)-N-(4-(naphthalene-2-sulfonamido)phenyl)-2-(2,3,4,5,6-pentafluoro-N-methylphenylsulfonamido)acetamide], the “30M IC50 (μM)” value in the experiment on BTSC30M is “no effect”. In addition, in the experiment with BTSC73M, the “73M IC50 (μM)” value is reported as “no effect”.

Turning to `CN(CC(=O)N(Cc1ccc(C2CCCCC2)cc1)c1ccc(NS(C)(=O)=O)cc1)S(=O)(=O)c1c(F)c(F)c(F)c(F)c1F` [Compound 14, N-(4-cyclohexylbenzyl)-N-(4-(methylsulfonamido)phenyl)-2-(2,3,4,5,6-pentafluoro-N-methylphenylsulfonamido)acetamide], the IC50 in the experiment on BTSC30M came out at 0.718 µM; in the experiment with BTSC68EF, 806 nM; in the experiment with BTSC73M, 1810 nM.

Regarding `CN(CC(=O)N(Cc1ccc(C2CCCCC2)cc1)c1cccc(O)c1)S(=O)(=O)c1c(F)c(F)c(F)c(F)c1F` [Compound 30, N-(4-cyclohexylbenzyl)-N-(3-hydroxyphenyl)-2-(2,3,4,5,6-pentafluoro-N-methylphenylsulfonamido)acetamide], the 50% inhibitory concentration (IC50) in the experiment on BTSC30M was found to be 0.776 µM; in the experiment with BTSC73M, 2840 nM.

Take `CN(CC(=O)N(Cc1ccc(C2CCCCC2)cc1)c1ccc(NS(N)(=O)=O)cc1)S(=O)(=O)c1c(F)c(F)c(F)c(F)c1F` [Compound 16, N-(4-cyclohexylbenzyl)-2-(2,3,4,5,6-pentafluoro-N-methylphenylsulfonamido)-N-(4-(sulfamoylamino)phenyl)acetamide]: the IC50 with BTSC30M worked out at 0.95 µM; in the experiment with BTSC68EF it was 839 nM; with BTSC73M, 2040 nM.

Consider `Cc1ccc(S(=O)(=O)N(C)CC(=O)N(Cc2ccc(C3CCCCC3)cc2)c2ccc(NC(=O)C(=O)O)cc2)cc1` [Compound 46, 2-((4-(N-(4-cyclohexylbenzyl)-2-(N,4-dimethylphenylsulfonamido)acetamido)phenyl)amino)-2-oxoacetic acid], for which, in the experiment on BTSC30M, the “30M IC50 (μM)” value is “no effect”. The “147EF IC50 (μM)” value with 147EF was “no effect”. In addition, the “73M IC50 (μM)” value with BTSC73M is given as “no effect”.

As for `CCOC(=O)C(=O)Nc1ccc(N(Cc2ccc(C3CCCCC3)cc2)C(=O)CN(C)S(=O)(=O)c2c(F)c(F)c(F)c(F)c2F)cc1` [Compound 17, ethyl 2-((4-(N-(4-cyclohexylbenzyl)-2-(2,3,4,5,6-pentafluoro-N-methylphenylsulfonamido)acetamido)phenyl)amino)-2-oxoacetate], the results for the IC50 in the experiment with BTSC30M, with BTSC68EF and in the experiment on BTSC73M were 0.694 µM, 631 nM and 1240 nM, respectively.

For `CN(CC(=O)N(Cc1ccc(C2CCCCC2)cc1)c1ccc(O)cc1)S(=O)(=O)c1c(F)c(F)c(F)c(F)c1F` [Compound 29, N-(4-cyclohexylbenzyl)-N-(4-hydroxphenyl)-2-(2,3,4,5,6-pentafluoro-N-methylphenylsulfonamido)acetamide], the IC50 in the experiment with BTSC30M was 0.941 µM; in the experiment with BTSC68EF, 1090 nM.

`CN(CC(=O)N(Cc1ccc(C2CCCCC2)cc1)c1ccc(NS(=O)(=O)c2ccc3ncccc3c2)cc1)S(=O)(=O)c1c(F)c(F)c(F)c(F)c1F` [Compound 13, N-(4-cyclohexylbenzyl)-2-(2,3,4,5,6-pentafluoro-N-methylphenylsulfonamido)-N-(4-(quinoline-6-sulfonamido)phenyl)acetamide]: the “30M IC50 (μM)” value in the experiment on BTSC30M was “no effect”. For the same compound, in the experiment with BTSC73M, the “73M IC50 (μM)” value is “no effect”.

Take `CC(=O)OCOC(=O)c1ccc(N(Cc2ccc(C3CCCCC3)cc2)C(=O)CN(C)S(=O)(=O)c2c(F)c(F)c(F)c(F)c2F)cc1` [Compound 26, acetoxymethyl 4-(N-(4-cyclohexylbenzyl)-2-(2,3,4,5,6-pentafluoro-N-methylphenylsulfonamido)acetamido)benzoate]: the values for the IC50 with BTSC30M and in the experiment with BTSC73M were 1.95 µM and 4340 nM, respectively.

For `CCOC(=O)C(=O)Nc1ccc(N(Cc2ccc(C3CCCCC3)cc2)C(=O)CN(C)S(=O)(=O)c2ccc(C)cc2)cc1` [Compound 18, ethyl 2-((4-(N-(4-cyclohexylbenzyl)-2-(N,4-dimethylphenylsulfonamido)acetamido)phenyl)amino)-2-oxoacetate], in the experiment with BTSC30M, the “30M IC50 (μM)” value was “no effect”. In addition, the IC50 in the experiment on 147EF was 3580 nM. Further, the “73M IC50 (μM)” value in the experiment with BTSC73M is “no effect”.

Regarding `CCOP(=O)(Cc1ccc(N(Cc2ccc(C3CCCCC3)cc2)C(=O)CN(C)S(=O)(=O)c2c(F)c(F)c(F)c(F)c2F)cc1)OCC` [Compound 20, diethyl 4-(N-(4-cyclohexylbenzyl)-2-(2,3,4,5,6-pentafluoro-N-methylphenylsulfonamido)acetamido)benzylphosphonate], the IC50 turned out to be 0.664 µM in the experiment on BTSC30M and 1820 nM in the experiment on BTSC73M. In the experiment with BTSC68EF, the “68EF IC50 (μM)” value is “no effect”.

(Values after patent US9650399B2, “Salicylic acid derivatives, pharmaceutically acceptable salt thereof, composition thereof and method of use thereof” (The Governing Council of the University of Toronto, priority 2012, dated 2017).)
